Assay results reported in article PMC6269887, “Novel Substituted Heteroaromatic Piperazine and Piperidine Derivatives as Inhibitors of Human Enterovirus 71 and Coxsackievirus A16” (Molecules, 2013).
“And” between values parts separate entries of the source, which are not always exact repeats. Identical values can stand only once. Like-named read-outs stand apart in the source and are kept apart here.

Columns and labels:
[1] = test system: EV71; assay: Neutralization test: inhibition of EV71-induced CPE on Vero cells; assay type: cell-based, Enterovirus 71 (Shenzhen 98, shzh01-8); conditions: for IC50: CPE on Vero cells, 100 TCID50, Reed-Muench; for EV71 SI: selectivity index
Experimental: (§1) The anti-EV71 activity, anti-CVA16 activity, and cytotoxicity of the compounds on the EV71 test strain (Shenzhen 98, shzh01-8) and CVA16 (laboratory viral culture) were evaluated by using cell culture cytopathic effect assays.
(§2) This assay measured the ability of the test compounds to inhibit the CPE induced by EV71 and CVA16 on Vero cells. The 96-well tissue culture plates were seeded with 20,000 Vero cells/mL. The plates were incubated for 24 h at 37 °C. The virus (100 TCID50) mixed with different concentrations of the test compounds was added to the cells, which were incubated at 37 °C for 2 h. After adsorption, the infected cells were overlaid with 50 μL of Dulbecco’s modified Eagle’s medium with 5% fetal bovine serum, and 2% DMSO. […] All assays were performed in triplicate.

[2] = test system: CVA16; assay: Neutralization test: inhibition of CVA16-induced CPE on Vero cells; assay type: cell-based, Coxsackievirus A16 (laboratory viral culture); conditions: for IC50: CPE on Vero cells, 100 TCID50, Reed-Muench; for CVA16 SI: selectivity index
Experimental: as §1, §2

[3] = test system: Vero cells; assay: Cytotoxicity assay on Vero cells; assay type: cell-based; conditions: for TC50: 96 h, concentration reducing cell viability to 50%
Experimental: The Vero cells treated with the test compounds were incubated at 37 °C for 96 h. After incubation, the cells were harvested and counted.

[4] = set-up: method as in PMID 23519203; conditions: pirodavir; cited from earlier work
[5] = test system: EV71; set-up: method as in PMID 23519203; conditions: pirodavir; cited from earlier work

Compound | IC50 ([1]; Enterovirus A, EV71, Vero) | IC50 ([2]; Enterovirus A, CVA16, Vero) | melting point | IC50 [1] | IC50 [2] | EV71 SI [1] | CVA16 SI [2] | TC0 [3] | TC50 [3] | TC50 [4] | IC50 [5] | SI [5]
COc1ccc(OCCCCCN2CCN(c3nccs3)CC2)cc1 [Compound 8a, 2-(4-(5-(4-Methoxyphenoxy)pentyl)piperazin-1-yl)thiazole] | 100 ± 9 µM | 69.2 ± 5.5 µM |  |  |  | 2.8 | 4.0 | 138 ± 9.6 µM | 277 ± 2.2 µM |  |  | 
CCOc1ccc(OCCCCCN2CCN(c3nccs3)CC2)cc1 [Compound 8b, 2-(4-(5-(4-Ethoxyphenoxy)pentyl)piperazin-1-yl)thiazole] | 21 ± 1.2 µM | 5.3 ± 0.3 µM | 79 to 81 °C |  |  | 3.2 | 12.7 | 33.3 ± 3.9 µM | 66.6 ± 1.0 µM |  |  | 
CCOc1ccc(OCCCCCCN2CCN(c3nccs3)CC2)cc1.Cl [Compound 8c, 2-(4-(6-(4-Ethoxyphenoxy)hexyl)piperazin-1-yl)thiazole hydrochloride] | 4.3 ± 0.1 µM | 6.8 ± 0.4 µM | 222 to 224 °C |  |  | 12.7 | 8.0 | 6.8 ± 0.1 µM | 54.1 ± 8.1 µM |  |  | 
CCc1ccc(OCCCCCCN2CCN(c3nccs3)CC2)cc1.Cl [Compound 8d, 2-(4-(6-(4-Ethylphenoxy)hexyl)piperazin-1-yl)thiazole hydrochloride] | 4.4 ± 0.3 µM | 14 ± 0.5 µM | 240 to 242 °C |  |  | 12.7 | 4.0 | 28.0 ± 2.5 µM | 56.0 ± 3.3 µM |  |  | 
CC(C)c1ccc(OCCCCCCN2CCN(c3nccs3)CC2)cc1.Cl [Compound 8e, 2-(4-(6-(4-Isopropylphenoxy)hexyl)piperazin-1-yl)thiazole hydrochloride] | 4.28 µM | 1.24 µM | 135 to 137 °C | 4.3 µM | 1.2 ± 0.5 µM | 10.1 | 34.8 | 6.8 ± 0.8 µM | 43.08 µM and 43.1 ± 4.7 µM |  |  | 
CC(C)(C)c1ccc(OCCCCCCN2CCN(c3nccs3)CC2)cc1 [Compound 8f, 2-(4-(6-(4-tert-Butylphenoxy)hexyl)piperazin-1-yl)thiazole] | 3.9 ± 0.1 µM | 7.8 ± 0.6 µM | 30 to 32 °C |  |  | 4.0 | 2.0 | 7.8 ± 0.4 µM | 15.6 ± 0.3 µM |  |  | 
CCOC(=O)c1ccc(OCCC2CCN(c3ccc(C)nn3)CC2)cc1 [pirodavir] |  |  |  |  |  |  |  |  |  | 31 ± 2.2 µM | 1.2 ± 0.2 µM | 25

Continued, in another order:

IC50 ([1]; Enterovirus A, EV71, Vero) | IC50 ([2]; Enterovirus A, CVA16, Vero) | melting point | IC50 [1] | IC50 [2] | Compound | EV71 SI [1] | CVA16 SI [2] | TC0 [3] | TC50 [3] | TC50 [4] | IC50 [5] | SI [5]
1.2 µM | 1.4 ± 0.1 µM |  |  |  | CCCCc1ccc(OCCN2CCN(c3cc(Cl)nnc3Cl)CC2)cc1 [Compound 9a] | 16.1 | 13.8 | 7.7 ± 0.3 µM | 19.2 ± 0.7 µM |  |  | 
21.6 ± 1.4 µM | > 29.7 µM |  |  | > 29.7 µM | Clc1cc(N2CCN(CCOc3ccc(-n4cnnc4)cc3)CC2)c(Cl)nn1 [Compound 9b] | 8.7 |  | 29.74 µM and 29.7 ± 2.2 µM | 189 ± 17.3 µM |  |  | 
> 31.5 µM | 10.8 ± 0.3 µM |  |  |  | CCOc1ccc(OCCN2CCN(c3cc(Cl)nnc3Cl)CC2)cc1 [Compound 9c] |  | 5.8 | 31.5 ± 2.1 µM | 62.9 ± 2.4 µM |  |  | 
> 31.5 µM | 22.1 ± 1.1 µM |  |  |  | COC(=O)c1ccc(OCCC2CCN(c3cc(Cl)nnc3Cl)CC2)cc1 [Compound 9d] |  | 8.7 | 30.5 ± 2.0 µM | 193 ± 19.3 µM |  |  | 
25.4 ± 1.7 µM | 16 ± 0.9 µM |  |  |  | CCOC(=O)c1ccc(OCCC2CCN(c3ccnnc3Cl)CC2)nc1 [Compound 9f] | >20.2 | >32.0 | 128 ± 9.5 µM | >512 µM |  |  | 
